For test [1], the target named is T1, Thyroid hormone receptor alpha (Homo sapiens, UniProt P10827).
T1 sequence (P10827 whole entry): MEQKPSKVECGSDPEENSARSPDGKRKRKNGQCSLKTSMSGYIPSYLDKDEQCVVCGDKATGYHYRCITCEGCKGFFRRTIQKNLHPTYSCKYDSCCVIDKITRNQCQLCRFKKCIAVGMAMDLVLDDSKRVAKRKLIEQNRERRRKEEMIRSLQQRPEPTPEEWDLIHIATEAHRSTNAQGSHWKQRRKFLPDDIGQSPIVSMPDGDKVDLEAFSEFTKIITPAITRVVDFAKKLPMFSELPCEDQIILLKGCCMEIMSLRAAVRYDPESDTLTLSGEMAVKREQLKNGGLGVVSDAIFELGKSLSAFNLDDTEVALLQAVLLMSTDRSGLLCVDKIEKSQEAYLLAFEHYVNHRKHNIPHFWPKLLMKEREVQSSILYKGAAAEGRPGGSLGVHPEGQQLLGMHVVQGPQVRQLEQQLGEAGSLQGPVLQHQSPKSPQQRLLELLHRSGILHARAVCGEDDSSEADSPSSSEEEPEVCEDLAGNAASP

For test [2], the target named is T2, Thyroid hormone receptor beta (Homo sapiens, UniProt P10828).
T2 sequence (P10828 whole entry): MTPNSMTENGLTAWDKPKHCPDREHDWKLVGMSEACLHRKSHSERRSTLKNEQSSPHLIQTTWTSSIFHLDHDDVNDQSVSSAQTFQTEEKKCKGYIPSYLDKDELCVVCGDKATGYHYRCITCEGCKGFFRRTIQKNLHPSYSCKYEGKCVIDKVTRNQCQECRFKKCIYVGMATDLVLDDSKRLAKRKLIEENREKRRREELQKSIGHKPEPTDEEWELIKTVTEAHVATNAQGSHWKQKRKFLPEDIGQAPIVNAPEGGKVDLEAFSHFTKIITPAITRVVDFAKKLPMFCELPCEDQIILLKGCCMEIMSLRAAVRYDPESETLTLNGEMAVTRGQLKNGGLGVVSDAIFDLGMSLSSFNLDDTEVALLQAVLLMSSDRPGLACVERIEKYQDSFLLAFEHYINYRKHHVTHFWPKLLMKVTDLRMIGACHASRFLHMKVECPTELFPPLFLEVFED

The source of these data is ChEMBL document CHEMBL1140629, “2D QSAR studies on thyroid hormone receptor ligands” (Bioorg Med Chem, 2007).

Broadly, the IC50 is the midpoint of a concentration-inhibition curve. Higher therefore signals weaker potency in that assay.

Regarding `CCCCOc1c(Br)cc(CC(=O)O)cc1Br`, the IC50 in test [1] is 26300 nM.

Take `O=C(O)Cc1cc(Br)c(Oc2ccc(O)c(Oc3ccc(O)cc3)c2)c(Br)c1`: the IC50 in test [1] was 240 nM.

Take `O=C(O)Cc1cc(Br)c(Oc2ccc(O)c(C(=O)Nc3ccccc3)c2)c(Br)c1`: the IC50 in test [2] was 35.5 nM.

For `O=C(O)Cc1cc(Cl)c(Oc2ccc(O)c(-c3ccccc3)c2)c(Cl)c1`, in test [1], 129 nM corresponded to half-maximal inhibition (IC50).

In the case of `O=C(O)Cc1cc(Cl)c(Oc2ccc(O)c(-c3cccc(O)c3)c2)c(Cl)c1`, in test [1], the IC50 is 1170 nM.

Take `COc1cccc(CCNC(=O)c2cc(Oc3c(Br)cc(CC(=O)O)cc3Br)ccc2O)c1`: the midpoint of inhibition in test [2], the IC50, lay at 4.9 nM.

As for `O=C(O)Cc1cc(Br)c(Oc2ccc(O)c(C(=O)NCCc3ccccn3)c2)c(Br)c1`, in test [1], the concentration for half-maximal inhibition (IC50) was 1150 nM.

The compound `O=C(O)Cc1cc(Br)c(Oc2ccc(O)c(C(=O)NCc3ccccc3)c2)c(Br)c1` gave an IC50 in test [1] of 85.1 nM.

Consider `CC(C)c1cc(Oc2c(Cl)cc3[nH]c(C(=O)O)cc(=O)c3c2Cl)ccc1O`, for which, in test [2], the IC50 is 15.1 nM.

Turning to `O=C(O)Cc1cc(Br)c(Oc2ccc(O)c(Cc3ccc(C(F)(F)F)cc3)c2)c(Br)c1`, the 50% inhibitory concentration (IC50) in test [1] was 339 nM; in test [2], 9.55 nM.

As for `O=C(O)CCc1cc(Br)c(OC2CCCCC2)c(Br)c1`, the IC50 in test [1] is 457 nM; in test [2], 191 nM.

For `O=C(O)Cc1cc(Br)c(OC2CCCCC2)c(Br)c1`, the results for the IC50 in test [1] and in test [2] were 2690 nM and 776 nM, respectively.

Consider `O=C(O)Cc1cc(Cl)c(Oc2ccc(O)c(C(=O)NCc3ccccc3)c2)c(Cl)c1`, for which the IC50 is 126 nM in test [1] and 3.47 nM in test [2].

For the compound `CC(C)c1cc(Oc2c(Br)cc3c(c2Br)CC(C(=O)O)N3)ccc1O` (stereo unspecified), the 50% inhibitory concentration (IC50) in test [1] is 38 nM; in test [2] it was 8.51 nM.

`O=C(O)Cc1cc(Cl)c(Oc2ccc(O)c(-c3cccc(C(F)(F)F)c3)c2)c(Cl)c1`: half-maximal inhibition in test [2] (IC50) required 0.851 nM.

For `O=C(O)Cc1cc(Cl)c(Oc2ccc(O)c(-c3ccccc3C(F)(F)F)c2)c(Cl)c1`, the IC50 in test [2] was 3.24 nM.
